PubChem BioAssay (NCI)
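Cells were grown in 96-well plates and exposed to each compound for 48 hours at five concentrations; endpoints were interpolated linearly between bracketing concentrations, or set to the highest concentration if not reached. GI50 marks 50% less growth. TGI: total growth inhibition.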

Legend:
Test in all cases: NCI tumour cell line growth inhibition, 48 h
[1] = test system: KM12 colon
[2] = test system: SK-MEL-28 melanoma
[3] = test system: PC-3 prostate
[4] = test system: HOP-62 NSCLC
[5] = test system: HOP-92 NSCLC
[6] = test system: U251 CNS
[7] = test system: K-562 leukemia
[8] = test system: OVCAR-3 ovarian
[9] = test system: NCI-H460 lung
[10] = test system: MOLT-4 leukemia

Row | Compound | TGI [1] | TGI [2] | TGI [3] | TGI [4] | TGI [5] | TGI [6] | TGI [7] | TGI [8] | TGI [9] | TGI [10] | GI50 [3] | GI50 [4] | GI50 [5] | GI50 [6] | GI50 [8] | GI50 [1] | GI50 [2] | GI50 [7] | GI50 [9] | GI50 [10]
1 | Cc1c(-c2ccccc2)c(C#N)c2nnn(-c3ccccc3)c(=O)n12 | > 100 µM | > 100 µM | > 100 µM | > 100 µM | > 100 µM | > 100 µM | > 100 µM | > 100 µM | > 100 µM | – | – | – | – | – | – | – | – | – | – | –
2 | CCCCC/C=C1/CC(CO)(COC(=O)CC(C(C)C)C(C)C)OC1=O (stereo not drawn) | 30.5 µM | 26.7 µM | 24.6 µM | 20.7 µM | 21.5 µM | 27.6 µM | 66.3 µM | 32.7 µM | > 100 µM | 26.2 µM | – | – | – | – | – | – | – | – | – | –
3 | O=[N+]([O-])C(/C(Cl)=C(/Cl)N1CCOCC1)=C1\NCCO1 | > 100 µM | > 100 µM | > 100 µM | > 100 µM | – | > 100 µM | – | > 100 µM | > 100 µM | > 100 µM | – | – | – | – | – | – | – | – | – | –
4 | CCCC(Sc1nc(N)nc2nc[nH]c12)C(=O)O (stereo not drawn) | > 100 µM | > 100 µM | > 100 µM | > 100 µM | > 100 µM | > 100 µM | > 100 µM | > 100 µM | > 100 µM | > 100 µM | – | – | – | – | – | – | – | – | – | –
5 | Cc1c(CNc2ccc(Cl)c(C(=O)NC(CC(=O)O)C(=O)O)c2)ccc2nc(N)nc(N)c12 (stereo not drawn) | > 1000 µM | – | > 1000 µM | – | > 1000 µM | > 1000 µM | > 1000 µM | > 1000 µM | 323 µM | > 1000 µM | < 0.01 µM | 0.557 µM | 288 µM | 75.8 µM | 16.8 µM | – | – | – | – | –
6 | COc1ccc(-c2oc3ccc(C)cc3c(=O)c2O)cc1 | > 100 µM | > 100 µM | > 100 µM | > 100 µM | > 100 µM | > 100 µM | – | > 100 µM | – | > 100 µM | – | – | – | – | – | – | – | – | – | –
7 | Cn1ccnc1CCc1ccc(F)cc1F | > 100 µM | > 100 µM | > 100 µM | > 100 µM | – | > 100 µM | > 100 µM | > 100 µM | > 100 µM | > 100 µM | – | – | – | – | – | – | – | – | – | –
8 | NNC(=O)CC(=O)Nc1ccc(Cl)cc1 | > 100 µM | > 100 µM | > 100 µM | > 100 µM | > 100 µM | > 100 µM | > 100 µM | > 100 µM | > 100 µM | > 100 µM | – | – | – | – | – | – | – | – | – | –
9 | Cc1oc2nc1C(=O)NCc1nc(cs1)C(=O)N[C@H](C(C)C)c1nc(cs1)C(=O)N[C@H]2C | > 100 µM | > 100 µM | > 100 µM | > 100 µM | > 100 µM | > 100 µM | > 100 µM | > 100 µM | > 100 µM | > 100 µM | – | – | – | – | – | – | – | – | – | –
10 | CCNC(=S)N/N=C/c1cc(OC)ccc1O | > 100 µM | > 100 µM | > 100 µM | > 100 µM | > 100 µM | > 100 µM | > 100 µM | > 100 µM | > 100 µM | > 100 µM | – | – | – | – | – | – | – | – | – | –
11 | C=Nc1ccc([N+](=O)[O-])cc1 | > 100 µM | > 100 µM | – | – | > 100 µM | > 100 µM | > 60.5 µM | > 100 µM | > 100 µM | > 100 µM | – | – | – | – | – | – | – | – | – | –
12 | CN(C)CCCn1c(Cc2ccccc2)nc2cc(C(F)(F)F)ccc21 | 31.3 µM | 37.6 µM | > 100 µM | > 100 µM | 92 µM | 38.8 µM | 47 µM | > 100 µM | 43.2 µM | 48.3 µM | – | – | – | – | – | – | – | – | – | –
13 | COC(c1ccsc1)C(C#N)(C#N)N=Cc1ccsc1 (stereo not drawn) | 32.3 µM | 33.1 µM | 27.5 µM | 34.8 µM | 27.1 µM | 33.5 µM | 49.3 µM | 42.2 µM | 45.4 µM | 43.3 µM | – | – | – | – | – | – | – | – | – | –
14 | O=C1COC(c2ccccc2O)=NN1CCCN1CCCC1 | > 100 µM | > 100 µM | > 100 µM | > 100 µM | > 100 µM | > 100 µM | – | > 100 µM | > 100 µM | > 100 µM | – | – | – | – | – | – | – | – | – | –
15 | CC(C)OC(=O)c1ccc(NCC2=CC(=O)C=CC2=O)cc1Cl | 33.2 µM | 56.5 µM | > 100 µM | > 100 µM | 14.4 µM | 54.9 µM | – | > 45.9 µM | 41 µM | > 30.7 µM | – | – | – | – | – | – | – | – | – | –
16 | Cc1cn(C2CC(O)C(CO)C2C)c(=O)[nH]c1=O (stereo not drawn) | > 100 µM | > 100 µM | – | > 100 µM | > 100 µM | > 100 µM | > 100 µM | > 100 µM | > 100 µM | > 100 µM | – | – | – | – | – | – | – | – | – | –
17 | CCN1CCN(C(=O)[C@]23CC[C@@H](C)[C@H](C)[C@@H]2C2=CC[C@@H]4[C@@]5(C)C/C(=C/c6cccnc6)C(=O)C(C)(C)[C@@H]5CC[C@@]4(C)[C@]2(C)CC3)CC1 | 3.56 µM | 3.15 µM | 3.85 µM | 5.86 µM | 5.73 µM | – | 7.44 µM | 3.19 µM | 3.45 µM | 7.38 µM | 1.49 µM | 2.43 µM | 1.57 µM | – | 1.65 µM | 1.75 µM | 1.75 µM | 2.63 µM | 1.78 µM | 2.45 µM
18 | Cc1ccc(S(=O)(=O)NC(=O)NC(Cc2c[nH]c3ccccc23)C(=O)O)cc1 (stereo not drawn) | > 100 µM | > 100 µM | > 100 µM | > 100 µM | > 100 µM | > 100 µM | > 100 µM | – | > 100 µM | > 100 µM | – | – | – | – | – | – | – | – | – | –
19 | CC1CN=C(Nc2cccc(C(F)(F)F)c2)S1 (stereo not drawn) | > 100 µM | > 100 µM | – | > 100 µM | – | > 100 µM | > 100 µM | > 100 µM | > 100 µM | > 100 µM | – | – | – | – | – | – | – | – | – | –
20 | COc1ccc2c(c1)OCC1(O)Cc3ccccc3OC21 (stereo not drawn) | > 100 µM | – | > 100 µM | > 100 µM | > 100 µM | > 100 µM | > 100 µM | > 100 µM | – | > 100 µM | – | – | – | – | – | – | – | – | – | –
21 | CN(C)N=Nc1ccc([N+](=O)[O-])cc1C(N)=O | > 100 µM | > 100 µM | – | > 100 µM | > 100 µM | > 100 µM | > 100 µM | > 100 µM | > 100 µM | > 100 µM | – | – | – | – | – | – | – | – | – | –
22 | Cc1cccc2c1C(=O)C1(Cc3ccccc3C1=O)C2 (stereo not drawn) | – | > 100 µM | > 100 µM | > 100 µM | > 100 µM | > 100 µM | > 100 µM | > 100 µM | > 100 µM | > 100 µM | – | – | – | – | – | – | – | – | – | –
